Data on 3 molecules can be found in ChEMBL document CHEMBL4177695, “Identification of pyruvate dehydrogenase kinase 1 inhibitors with anti-osteosarcoma activity” (Bioorg Med Chem Lett, 2017).

Structures are written as SMILES. The source made the active and inactive calls. The rule behind the calls is not given here.

Assay [1] concerns the target T1, [Pyruvate dehydrogenase (acetyl-transferring)] kinase isozyme 1, mitochondrial (Homo sapiens, UniProt Q15118). The experiment in a line: Inhibition of PDK1 in human MG63 cells assessed as reduction in pyruvate dehydrogenase complex phosphorylation at ser293 residue at 6 uM after 12 hrs by high content analysis relative to control. Type of assay: cell-based.
Assay [2] relates to MG-63. The assay is described as follows: Potency index, ratio of DCA EC50 to test compound EC50 for human MG63 cells. It is filed as functional.
For assay [3], the target named is T1, [Pyruvate dehydrogenase (acetyl-transferring)] kinase isozyme 1, mitochondrial. The experiment in a line: Inhibition of PDK1 in human MG63 cells assessed as reduction in pyruvate dehydrogenase complex phosphorylation at ser232 residue after 24 hrs by Western blot analysis. Type of assay: cell-based. For orientation: Immunoblotting shows a protein as a band on a membrane.

The target is the same in assay [4]. The experiment in a line: Inhibition of PDK1 in human MG63 cells assessed as reduction in pyruvate dehydrogenase complex phosphorylation at ser232 residue after 12 hrs by high content analysis. It is filed as cell-based.
The target is the same in assay [5]. The assay is described as follows: Potency index, ratio of DCA IC50 to test compound IC50 for recombinant human GST-tagged PDK1 expressed in baculovirus infected Sf9 cells.
Assay [6] has as its system MG-63. The assay is described as follows: Anti-proliferative activity against human MG63 cells after 72 hrs by MTT assay. Type of assay: functional, cell-based. The note with it: for EC50: MG-63, 72 h.
Assay [7] has as its target T1, [Pyruvate dehydrogenase (acetyl-transferring)] kinase isozyme 1, mitochondrial. The experiment in a line: Inhibition of recombinant human GST-tagged PDK1 expressed in baculovirus infected Sf9 cells at 10 uM using PDHA1 as substrate measured after 1 hr by ELISA relative to control. For orientation: An ELISA detects its analyte on a solid surface through an enzyme-linked reagent.

The target is the same in assay [8]. The assay is described as follows: Inhibition of PDK1 in human MG63 cells assessed as reduction in pyruvate dehydrogenase complex phosphorylation at ser293 residue after 12 hrs by high content analysis. Type of assay: cell-based.
For assay [9] the target is unchanged. The assay is described as follows: Inhibition of recombinant human GST-tagged PDK1 expressed in baculovirus infected Sf9 cells using PDHA1 as substrate measured after 1 hr by ELISA.
The target is the same in assay [10]. The assay is described as follows: Inhibition of PDK1 in human MG63 cells assessed as reduction in pyruvate dehydrogenase complex phosphorylation at ser293 residue after 24 hrs by Western blot analysis. Type of assay: cell-based.
Assay [11] has the same target. The experiment in a line: Inhibition of PDK1 in human MG63 cells assessed as reduction in pyruvate dehydrogenase complex phosphorylation at ser293 residue at 12 uM after 12 hrs by high content analysis relative to control. It is filed as cell-based.
For assay [12] the target is unchanged. The experiment in a line: Inhibition of PDK1 in human MG63 cells assessed as reduction in pyruvate dehydrogenase complex phosphorylation at ser293 residue at 3 uM after 12 hrs by high content analysis relative to control. It is filed as cell-based.
Assay [13] has as its target [Pyruvate dehydrogenase (acetyl-transferring)] kinase isozyme 2, mitochondrial (Homo sapiens, UniProt Q15119). The experiment in a line: Inhibition of recombinant human GST-tagged PDK2 expressed in baculovirus infected Sf9 cells using PDHA1 as substrate measured after 1 hr by ELISA.
In assay [14] the target is T1, [Pyruvate dehydrogenase (acetyl-transferring)] kinase isozyme 1, mitochondrial. The note with it: 10 mM.
Description: Inhibition of PDK1 in human MG63 cells assessed as reduction in pyruvate dehydrogenase complex phosphorylation at ser293 residue at 10 mM after 24 hrs by Western blot analysis
For assay [15] the target is unchanged. The note with it: 10 mM. This is another data set of the same source.
Description: Inhibition of PDK1 in human MG63 cells assessed as reduction in pyruvate dehydrogenase complex phosphorylation at ser232 residue at 10 mM after 24 hrs by Western blot analysis
Assay [16] shares this target. The conditions noted are these: 10 mM. This is another data set of the same source.
Description: Inhibition of PDK1 in human MG63 cells assessed as reduction in pyruvate dehydrogenase complex phosphorylation at ser293 residue at 10 mM after 12 hrs by high content analysis
Assay [17] has the same target. The conditions noted are these: 10 mM. This is another data set of the same source.
Description: Inhibition of PDK1 in human MG63 cells assessed as reduction in pyruvate dehydrogenase complex phosphorylation at ser232 residue at 10 mM after 12 hrs by high content analysis

T1 sequence (Q15118 whole entry): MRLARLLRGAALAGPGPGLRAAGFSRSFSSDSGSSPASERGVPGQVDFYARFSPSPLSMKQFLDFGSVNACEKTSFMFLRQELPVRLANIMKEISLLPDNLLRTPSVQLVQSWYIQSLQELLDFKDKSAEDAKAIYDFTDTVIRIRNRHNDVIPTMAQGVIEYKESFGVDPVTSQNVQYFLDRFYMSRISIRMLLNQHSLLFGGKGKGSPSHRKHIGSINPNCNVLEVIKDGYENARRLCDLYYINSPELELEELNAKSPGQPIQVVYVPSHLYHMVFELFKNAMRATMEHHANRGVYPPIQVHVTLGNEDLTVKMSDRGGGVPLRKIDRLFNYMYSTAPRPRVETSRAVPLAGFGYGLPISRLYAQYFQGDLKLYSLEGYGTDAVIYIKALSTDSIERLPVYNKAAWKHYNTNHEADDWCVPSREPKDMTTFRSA

Consider `COc1ccc(-c2c(C)c3ccc(OCCN4CCN(CCO)CC4)cc3oc2=O)cc1OC`, for which the inhibition (commonly the change of the read-out against control, counted positive when it falls) in assay [1] was 39.7%; in assay [3], “Dose-dependent effect”; in assay [4], “Dose-dependent effect”; in [7], 80.5%; in assay [8], “Dose-dependent effect”; in [10] it was “Dose-dependent effect”. In addition, the results for the inhibition in [11] and in [12] were 78.3% and 18.7%, respectively. For the same molecule, the “Ratio EC50” value in the assay on MG-63 [2] is on record as greater than 1000. Besides, in assay [5], the Ratio IC50 was greater than 1000. For the same molecule, in the assay with MG-63 [6], the Activity result was “Dose-dependent effect”. The EC50 – broadly, the concentration at which the effect is half-maximal – with MG-63 [6] was 14.5 µM. Moreover, the IC50 (in general, the concentration that inhibits the measured activity by half) was found to be 2.97 µM in assay [9] and 5.2 µM in [13].

In the case of `O=C(O)C(Cl)Cl` [DICHLOROACETIC ACID], the inhibition entry in [14], in assay [15], in [16] and in assay [17] was “Active” each time. The same molecule gave an EC50 in the assay on MG-63 [6] of 15400 µM. In [13], the IC50 is 9000 µM.

`O=c1c(-c2ccc(Br)cc2)coc2cc(OCCN3CCN(CCO)CC3)ccc12`: the inhibition in [1] was 49.3%; in [3], “Dose-dependent effect”; in assay [4], “Dose-dependent effect”; in assay [7], 83.3%; in assay [8], “Dose-dependent effect”; in [10] it was “Dose-dependent effect”. In addition, the inhibition in assay [11] is 75.3%; in [12], 17.6%. Besides, the “Ratio EC50” value in the assay with MG-63 [2] is given as greater than 1000. In addition, in [5], the Ratio IC50 is greater than 1000. Also, the Activity entry in the assay with MG-63 [6] was “Dose-dependent effect”. Also, the response in the assay on MG-63 [6] was half-maximal at 11 µM (EC50). In addition, the IC50 in [9] was 3.14 µM; in assay [13] it was 10.9 µM.
